Laboratory results: patent US9655889B2, “Inhibitors of human immunodeficiency virus replication” (priority 2013, dated 2017)

Tested on: recombinant NL-Rluc virus
Experiment: Inhibition of HIV replication (NL-RLuc virus luciferase assay in MT-2 cells)
Type: cell-based
Settings: Human immunodeficiency virus 1, MT2, 120 h

SMILES	EC50 [nM]
Cc1cc2nc(-c3ncc(Cc4ccc(F)cc4)o3)cn2c(N2CCC(C)(C)CC2)c1[C@H](OC(C)(C)C)C(=O)O [Example 2, (S)-2-(tert-Butoxy)-2-(5-(4,4-dimethylpiperidin-1-yl)-2-(5-(4-fluorobenzyl)oxazol-2-yl)-7-methylimidazo[1,2-a]pyridin-6-yl)acetic acid]	2
Cc1cc2nc(-c3ncc(Cc4ccc(F)cc4)[nH]3)cn2c(N2CCC(C)(C)CC2)c1[C@H](OC(C)(C)C)C(=O)O [Example 7, (S)-2-(tert-Butoxy)-2-(5-(4,4-dimethylpiperidin-1-yl)-2-(5-(4-fluorobenzyl)-1H-imidazol-2-yl)-7-methylimidazo[1,2-a]pyridin-6-yl)acetic acid]	34
Cc1cc2nc(-c3nc(Cc4ccccc4)no3)cn2c(N2CCC(C)(C)CC2)c1[C@H](OC(C)(C)C)C(=O)O [Example 4, (S)-2-(2-(3-Benzyl-1,2,4-oxadiazol-5-yl)-5-(4,4-dimethylpiperidin-1yl)-7-methylimidazo[1,2-a]pyridin-6-yl)-2-(tert-butoxy)acetic acid]	3
Cc1cc(CNC(=O)c2cn3c(N4CCC(C)(C)CC4)c([C@H](OC(C)(C)C)C(=O)O)c(C)cc3n2)ccc1F [Example 1, (S)-2-(tert-Butoxy)-2-(5-(4,4-dimethylpiperidin-1-yl)-2-((4-fluoro-3-methylbenzyl)carbamoyl)-7-methylimidazo[1,2-a]pyridin-6-yl)acetic acid]	8
C=CCOC1(C)CCN(c2c([C@H](OC(C)(C)C)C(=O)O)c(C)cc3nc(NS(=O)(=O)c4ccc(F)cc4)cn23)CC1 [Example 9, (S)-2-(5-(4-(Allyloxy)-4-methylpiperidin-1-yl)-2-(4-fluorophenylsulfonamido)-7-methylimidazo[1,2-a]pyridin-6-yl)-2-(tert-butoxy)acetic acid]	6030
Cc1cc2nc(-c3nc(Cl)c(Cc4ccc(F)cc4)[nH]3)cn2c(N2CCC(C)(C)CC2)c1[C@H](OC(C)(C)C)C(=O)O [Example 6, (S)-2-(tert-Butoxy)-2-(2-(4-chloro-5-(4-fluorobenzyl)-1H-imidazol-2-yl)-5-(4,4-dimethylpiperidin-1-yl)-7-methylimidazo[1,2-a]pyridin-6)acetic acid]	13
Cc1cc2nc(-c3nnc(Cc4ccccc4)o3)cn2c(N2CCC(C)(C)CC2)c1[C@H](OC(C)(C)C)C(=O)O [Example 5, (S)-2-(2-(5-Benzyl-1,3,4-oxadiazol-2-yl)-5-(4,4-dimethylpiperidin-1-yl)-7-methylimidazo[1,2-a]pyridin-6-yl)-2-(tert-butoxy)acetic acid]	8
Cc1cc2nc(-c3ncc(Cc4ccc(F)cc4)s3)cn2c(N2CCC(C)(C)CC2)c1[C@H](OC(C)(C)C)C(=O)O [Example 3, (S)-2-(tert-Butoxy)-2-(5-(4,4-dimethylpiperidin-1-yl)-2-(5-(4-fluorobenzyl)thiazol-2-yl)-7-methylimidazo[1,2-a]pyridin-6-yl)acetic acid]	21
C=CCOC1(C)CCN(c2c([C@H](OC(C)(C)C)C(=O)O)c(C)cc3nc(NS(=O)(=O)Cc4ccc(F)cc4)cn23)CC1 [Example 8, (S)-2-(5-(4-(Allyloxy)-4-methylpiperidin-1-yl)-2((4-fluorophenyl)methylsulfonamido)-7-methylimidazo[1,2-a]pyridin-6-yl)-2-(tert-butoxy)acetic acid]	3300
